From BindingDB's records for PubMed 1987453 (Georgetown University, 1991)

These molecules were tested against Nicotinic acetylcholine receptor (Rattus leucopus, UniProt Q62594).
Chain of Nicotinic acetylcholine receptor (Q62594 whole entry): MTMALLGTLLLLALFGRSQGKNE

Row | Compound | Ki [µM]
1 | CNC(=O)Oc1ccc2c(c1)[C@]1(C)CCN(C)C1N2C (some centres undefined) | > 10
2 | C=C(C=O)C[C@H]1C[C@H](O)[C@]2(C)O[C@@H]3C[C@@H]4O[C@@H]5C[C@]6(C)O[C@]7(C)CC[C@@H]8O[C@@H]9C[C@]%10(C)O[C@@H]%11C(C)=CC(=O)O[C@H]%11C[C@H]%10O[C@H]9C[C@@H](C)[C@H]8O[C@H]7C[C@H]6O[C@@]5(C)C/C=C\[C@H]4O[C@H]3C[C@H]2O1 | 2
3 | CN1[C@@H]2CC[C@H]1CC(OC(=O)[C@H](CO)c1ccccc1)C2 (some centres undefined) [CAS_51-55-8] | > 10
4 | COc1cc2c3cc1Oc1cc(ccc1O)CC1c4c(cc(OC)c(O)c4Oc4ccc(cc4)CC3[N+](C)(C)CC2)CC[N+]1(C)C (centres undefined) [CAS_8063-06-7] | > 10
